Key:
PsKAI2A = target: T1, PsKAI2A (Lathyrus oleraceus, UniProt A0A9D4YJ13); test: intrinsic tryptophan fluorescence Kd; hydrolysis by UPLC; MS covalent adduct; type: binding
T1 construct: gene KIW84_024963; PsKAI2A.2 (272 aa)
T1 sequence (A0A9D4YJ13 1-264 limits assumed): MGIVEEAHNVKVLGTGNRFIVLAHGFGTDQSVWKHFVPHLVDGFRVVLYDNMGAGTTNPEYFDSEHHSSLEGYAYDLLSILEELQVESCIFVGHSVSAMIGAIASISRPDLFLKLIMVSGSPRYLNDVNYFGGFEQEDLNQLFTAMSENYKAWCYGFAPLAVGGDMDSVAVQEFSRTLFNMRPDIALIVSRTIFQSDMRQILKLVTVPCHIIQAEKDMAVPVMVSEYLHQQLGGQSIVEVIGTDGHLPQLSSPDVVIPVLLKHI

AtD14 = target: T2, AtD14 (Arabidopsis thaliana, UniProt Q9SQR3); test: hydrolysis by purified protein, UPLC-UV; type: biochemical
T2 construct: gene D14
T2 sequence (Q9SQR3 1-267): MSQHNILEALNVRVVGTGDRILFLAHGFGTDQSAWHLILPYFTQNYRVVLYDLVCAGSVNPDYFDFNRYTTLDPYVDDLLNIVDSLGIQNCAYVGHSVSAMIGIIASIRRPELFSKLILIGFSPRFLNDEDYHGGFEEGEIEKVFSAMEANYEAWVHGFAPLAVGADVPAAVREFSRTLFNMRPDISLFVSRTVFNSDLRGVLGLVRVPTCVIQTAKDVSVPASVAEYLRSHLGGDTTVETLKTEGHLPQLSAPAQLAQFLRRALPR

PsKAI2B [1] = target: T3, PsKAI2B (Lathyrus oleraceus, UniProt A0A8X6EGX8); test: intrinsic tryptophan fluorescence Kd; DSF shift; hydrolysis by UPLC; MS covalent adduct; type: binding
T3 sequence (A0A8X6EGX8 1-270): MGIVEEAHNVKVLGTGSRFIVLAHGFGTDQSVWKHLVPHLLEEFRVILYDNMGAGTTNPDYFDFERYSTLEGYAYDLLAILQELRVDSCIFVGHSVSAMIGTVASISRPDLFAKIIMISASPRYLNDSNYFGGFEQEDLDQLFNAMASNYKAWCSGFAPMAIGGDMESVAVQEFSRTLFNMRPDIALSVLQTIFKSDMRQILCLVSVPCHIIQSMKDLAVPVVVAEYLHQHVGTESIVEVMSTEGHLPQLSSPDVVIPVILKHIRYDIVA

RMS3 = target: T4, RMS3 (Lathyrus oleraceus, UniProt A0A109QYD3); test: hydrolysis by purified protein, UPLC-UV; type: biochemical
T4 sequence (A0A109QYD3 1-267): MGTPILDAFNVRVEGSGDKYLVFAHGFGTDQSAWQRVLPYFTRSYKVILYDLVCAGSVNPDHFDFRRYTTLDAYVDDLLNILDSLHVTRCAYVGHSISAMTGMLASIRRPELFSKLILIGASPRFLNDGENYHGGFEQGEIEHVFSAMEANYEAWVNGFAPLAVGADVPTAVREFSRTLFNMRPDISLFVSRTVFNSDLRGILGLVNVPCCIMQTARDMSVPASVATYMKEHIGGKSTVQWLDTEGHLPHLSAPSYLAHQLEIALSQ

PsKAI2B [2] = target: T3, PsKAI2B; test: co-crystal structure with (–)-GR24 at […] Å; hydrolysis product trapped in catalytic site; MS +[…] Da adduct on H246; type: binding

SMILES: CC1=C[C@@H](O/C=C2/C(=O)O[C@H]3c4ccccc4C[C@@H]23)OC1=O [(–)-GR24]
- Kd (PsKAI2A): 115 ± 9.87 µM
- hydrolysis by purified protein, UPLC-UV (AtD14): AtD14 and PsRMS3 (Pisum D14) similarly bind and hydrolyze both the isolated (–)- and (+)-GR24 stereoisomers
- Kd (PsKAI2B [1]): 89.4 ± 12.1 µM
- hydrolysis by purified protein, UPLC-UV (RMS3): AtD14 and PsRMS3 (Pisum D14) similarly bind and hydrolyze both the isolated (–)- and (+)-GR24 stereoisomers

SMILES: CC1=CC(O)OC1=O [D-OH, 5-hydroxy-3-methylbutenolide]
- co-crystal structure with (-)-GR24 at 2.0 Å; hydrolysis product trapped in catal (PsKAI2B [2]): 5-hydroxy-3-methylbutenolide (D-OH ring), resulting from the (–)-GR24 cleavage, is trapped in the catalytic site

Reference: publication PMC8837635, “Structural and functional analyses explain Pea KAI2 receptor diversity and reveal stereoselective catalysis during signal perception” (Communications Biology, 2022)
